These results are taken from paper PMC13289212, “HIVIL: A human in vitro inflammatory liver model recapitulates immune-associated drug effects with high predictivity” (NAM journal, 2025).

Data set [1] concerns TNFα. As to the kind of experiment: TNFα ELISA in HIVIL (iKCs co-cultured with iHeps, LPS, 48 hr). Type of data set: cell-based, human. Particulars: low dose 3.125 μM and 6.25 μM. The source says: Human iPSC cell line iPS (IMR90)-4 was purchased from WiCell Research Institute (Madison, WI), and maintained with a feeder-free method according to the instruction from […] Technologies (Vancouver, BC, Canada). The protocol of differentiation towards iKCs and iHeps as described previously with slight modification ([Tasnim et al., 2019]; [Cai et al., 2012]), respectively. […] More details are provided in Supplementary Methods. After differentiation, iKCs was harvested using 0.05 % trypsin-EDTA (Gibco, Waltham, Massachusetts, USA), while iHeps were dissociated with TrypLE^TM (Gibco). iHep suspension was further filtered through a 40 µm cell strainer to remove extracellular matrix clumps. Cell suspension was centrifuged at 1000 rpm for 5 min. For co-culture set up, tissue culture plates were coated with Rat tail collagen I (Gibco) diluted 100-fold in 0.02 N acetic acid, and incubated at 37 °C for 1 h and washed 3 times with PBS. According to the protocol optimized by [Tasnim et al. (2019)], iKCs was firstly seeded at a density of 14,000 per well on 96-well plate with Advanced DMEM (plus supplements) containing 5 % FBS. On the following day, iHeps were added at a density of 35,000 per well in Williams’ Medium E (plus supplements) (iHep: iKCs ratio = 2.5: 1). This reflects the physiological ratio of these cells in vivo under inflammatory conditions ([Tasnim et al., 2021]). Fresh media containing drugs was applied to co-cultures the next day. 50,000 cells were seeded to establish iHeps monoculture. THP-1 cells were kindly obtained from Dr. Eliza Fong and cultured as described by [Zeng et al. (2015)]. Details provided in Supplementary Methods.
(§1) Stock solutions of drugs were prepared in dimethyl sulfoxide (DMSO) and dissolved in medium prior to use. […] For these two drugs, the highest DMSO concentration was 1 %. Supernatant was collected at 48 hr for measurement of cytokines, and remaining cells were subjected to viability assay prior to lysis for RNA extraction.
Enzyme-linked immunosorbent assay (ELISA) for measurement of cytokines: Interleukin-6 (IL-6), interleukin-10 (IL-10) and tumor necrosis factor alpha (TNFα) levels in the media were measured using the corresponding human-based ELISA kits (Abcam, Cambridge, United Kingdom) according to manufacturer’s instructions. The cytokine production from dosed cells was normalized with the viability value from the same well. The normalized cytokine level upon drug treatments was further presented as percentage of DMSO+LPS. […] This normalization approach has been used in previous studies (Rose et al. 2016).

Data set [2] is described as follows: AlamarBlue cell viability in HIVIL. Particulars: human. How it is done:
as §1
On the technique in general: Resazurin is reduced to fluorescent resorufin, in cell work by metabolically active cells.

Data set [3] relates to HIVIL (iKCs co-cultured with iHeps). Put plainly: AlamarBlue cell viability in HIVIL. How it is done:
as §1

Data set [4] in a line: Cell viability of iHeps mono-culture. Type of data set: cell-based. Conditions: human. The source says: Human iPSC cell line iPS (IMR90)-4 was purchased from WiCell Research Institute (Madison, WI), and maintained with a feeder-free method according to the instruction from […] Technologies (Vancouver, BC, Canada). The protocol of differentiation towards iKCs and iHeps as described previously with slight modification ([Tasnim et al., 2019]; [Cai et al., 2012]), respectively. The re-optimized protocol to generate iKCs is discussed in Results section. More details are provided in Supplementary Methods. After differentiation, iKCs was harvested using 0.05 % trypsin-EDTA (Gibco, Waltham, Massachusetts, USA), while iHeps were dissociated with TrypLE^TM (Gibco). iHep suspension was further filtered through a 40 µm cell strainer to remove extracellular matrix clumps. Cell suspension was centrifuged at 1000 rpm for 5 min. For co-culture set up, tissue culture plates were coated with Rat tail collagen I (Gibco) diluted 100-fold in 0.02 N acetic acid, and incubated at 37 °C for 1 h and washed 3 times with PBS. According to the protocol optimized by [Tasnim et al. (2019)], iKCs was firstly seeded at a density of 14,000 per well on 96-well plate with Advanced DMEM (plus supplements) containing 5 % FBS. On the following day, iHeps were added at a density of 35,000 per well in Williams’ Medium E (plus supplements) (iHep: iKCs ratio = 2.5: 1). […]

Another data set has as its system IL-6. Also noted: method as in ref Hassan et al. 2016; Giustarini et al. 2019; Higuchi et al. 2012; Dik et al. 2018. Conditions: ref Hassan et al. 2016; Giustarini et al. 2019; Higuchi et al. 2012; Dik et al. 2018; cited from earlier work.
Data set [5] has as its system TNFα. Particulars: ref Shaw et al. 2010; Zou et al. 2009; Bekker et al. 2012; Gandhi et al. 2013; Heidari et al. 2019; cited from earlier work.
For data set [6] the following is noted: FDA-labeling information; ref Chen et al. 2016; cited from earlier work.

The compound `N[C@@H]1[C@H]2CN(c3nc4c(cc3F)c(=O)c(C(=O)O)cn4-c3ccc(F)cc3F)C[C@@H]12` [TVX, Trovafloxacin] gave a TNFα induction in the data set with TNFα [1] of 1.5 fold. Besides, the viability (usually a read-out of living cells in per cent, often relative to untreated cells) at 48 hr in data set [2] came out at 63.4 ± 5%. In data set [3] (Homo sapiens, 48 h, read-out: IC50: viability), the IC50 (commonly the midpoint of a concentration-inhibition curve) came to 87.7 µM. Further, the “viability profiles among iHeps, iKCs and HIVIL” value in data set [3] (comparison of mono-cultures and co-culture) was “similar”. This compound yielded a viability in data set [4] of 53.7%. Moreover, the “Reported in-vivo (murine) responses: IL-6” value in the data set with IL-6 was “IL-6↑”. Further, the “Reported in-vivo (murine) responses: TNFα” value in the data set on TNFα [5] is “TNFα↑”. Besides, the DILIrank entry in data set [6] was “most”.
